{"source": "paper PMC7894522", "about": "“Structure Based Design of Bicyclic Peptide Inhibitors of RbAp48” (Angewandte Chemie (International Ed. in English), 2020)", "note": "Starred links: 1 amine or outer side, 2 acyl side, 3 side chain; linkers in the order of their positions; H or OH if unused. Positions of bridges follow the written chain, without caps; N, C: chain ends. Residues, ends and D or L forms follow the SMILES beside them. Pyridine(2,6-diCH2) = c1cc(C[*:1])nc(C[*:2])c1; mXylylene = c1cc(C[*:1])cc(C[*:2])c1; oXylylene = c1ccc(C[*:2])c(C[*:1])c1; pXylylene = c1cc(C[*:2])ccc1C[*:1]"}
{"biological_target": "RbAp48 (Homo sapiens, UniProt Q09028)", "sequence (Q09028 whole entry)": "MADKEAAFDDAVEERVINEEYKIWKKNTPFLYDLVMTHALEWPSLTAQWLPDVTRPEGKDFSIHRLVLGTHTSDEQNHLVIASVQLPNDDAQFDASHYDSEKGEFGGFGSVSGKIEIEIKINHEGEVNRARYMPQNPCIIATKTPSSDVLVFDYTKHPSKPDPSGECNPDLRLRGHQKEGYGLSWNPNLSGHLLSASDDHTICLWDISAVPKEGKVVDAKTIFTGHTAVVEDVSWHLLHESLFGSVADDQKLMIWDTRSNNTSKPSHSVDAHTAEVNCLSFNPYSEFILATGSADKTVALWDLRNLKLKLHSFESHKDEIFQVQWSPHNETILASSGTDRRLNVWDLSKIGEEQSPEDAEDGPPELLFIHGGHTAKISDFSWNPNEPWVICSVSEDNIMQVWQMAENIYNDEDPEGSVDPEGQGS", "experiment": "Competitive fluorescence polarization (FP) assay using complex of peptide 1 and RbAp48", "format": "binding", "set-up": "Full length RbAp48 was cloned; His tag followed by 3C cleavage site (N, cleaved yes); made in house; host or cells: Sf9 insect cells", "conditions": "Supplemental Table 2; competitive FP, tracer 1 nM, RbAp48 15 nM, pH 7.5, 30 min room temperature; read-out: IC50", "protocol": "(§1) The binding affinity of our library of synthetic cyclic peptides was evaluated by a competitive fluorescence polarization (FP) assay using a complex formed by peptide 1 and RbAp48. To reduce the length of the peptide it was truncated to the amino acids which seemed most critical according to the crystal structure (residues 676–689, pdb:4pbz). […] We chose to use a cyclization approach to regain affinity, that is, not to induce more interactions but through minimizing the entropic penalty upon binding by reducing the flexibility of the peptide. To this end two amino acids were chosen which are facing one another in the structure (see Figure 1 B/D/E). Two peptides were designed where glutamic acid was used in position 676 (4) or position 680 (5) and lysine in position 688 for both peptides (see Table 1). The macrocycles were formed by connecting the side chains via an amide bond (see Figure 1 D/E). Peptide synthesis was performed on Rink‐amide resin using the Fmoc‐strategy incorporating Fmoc‐L‐Glu(All)‐OH and Fmoc‐L‐Lys(Alloc)‐OH at the sites for cyclization. After completion of the linear synthesis the allyl protecting groups were removed using Pd^0 catalysis and the amide link was formed by using PyBOP. […] Therefore, a range of peptides was synthesized which were cyclized using the same amino acid positions but via a cysteine alkylation strategy (see Figure 1 D/E and Table 1). In this method the residues used for cyclization are replaced with cysteine and benzylic dibromides act as crosslinkers on the unprotected peptides. ^[11] Previous research has shown that such linkers can effectively stabilize cyclic peptides and yield high affinity ligands for protein–protein interaction inhibition. ^[12] Such a linker introduces a xylene group in close vicinity of the hydrophobic patch potentially reconstituting the lost key hydrophobic interactions. To explore a variety of macrocycle conformations we used either ortho‐, meta‐ or para‐substituted dibromides to exchange the linker in both 4 and 5 (see Figure 1 D/E and Table 1). ^[13]\n(§2) Protein expression and purification\n(§3) RbAp48 was expressed and purified by the Dortmund Protein Facility. Full length RbAp48 was cloned into a pOPIN vector ligating it to an N-terminal His tag followed by a 3C cleavage site. The protein was expressed from Sf9 cells for 48 h. Cells were harvested and lysed and the protein was purified by loading onto a HisTrap FF crude 5 ml column followed by on-column cleavage using Precission protease. The cleaved protein was then further purified using a HiLoad 26/60 Superdex 200 column.\n(§4) Fluorescence polarization assay\n(§5) Fluorescence polarization assays were performed in 384 wells plates in 80 µl volumes. The assay buffer contains 20 mM Tris-HCl, 150 mM NaCl, 0.01% Tween-20 at pH 7.5. The concentration of the fluorescently labelled peptides was 1 nM plates were incubated at room temperature for 30 min before they were read on a Tecan Spark plate reader (λex = 485 nm, λem = 535 nm).\n(§6) For competitive assays the same conditions were used with a tracer concentration of 1 nM was used and a protein concentration of 15 nM .", "units": {"IC50": "nM"}}
{"smiles": "CC[C@H](C)[C@H](NC(=O)[C@@H]1CCCN1C(=O)[C@H](CC(C)C)NC(=O)[C@H](Cc1ccc(O)cc1)NC(=O)[C@@H]1CCCN1C(=O)[C@H](Cc1c[nH]cn1)NC(=O)[C@H](CCCNC(=N)N)NC(=O)[C@H](C)NC(=O)[C@H](C)NC(=O)[C@H](Cc1c[nH]cn1)NC(=O)[C@H](Cc1c[nH]c2ccccc12)NC(=O)[C@@H]1CCCN1C(=O)[C@H](CCCNC(=N)N)NC(=O)[C@H](CC(C)C)NC(C)=O)C(=O)N[C@@H](CC(N)=O)C(N)=O", "note": "[Peptide 14] (Ac-LRPWHAARHPYLPIN-NH2)", "IC50": "> 10000"}
{"smiles": "CC[C@H](C)[C@H](NC(=O)[C@@H]1CCCN1C(=O)[C@H](CC(C)C)NC(=O)[C@H](Cc1ccc(O)cc1)NC(=O)[C@@H]1CCCN1C(=O)[C@H](Cc1c[nH]cn1)NC(=O)[C@H](CCCNC(=N)N)NC(=O)[C@H](C)NC(=O)[C@H](C)NC(=O)[C@H](Cc1c[nH]cn1)NC(=O)[C@H](Cc1c[nH]c2ccccc12)NC(=O)[C@@H]1CCCN1C(=O)[C@H](CCCNC(=N)N)NC(C)=O)C(=O)N[C@@H](CC(N)=O)C(N)=O", "note": "[Peptide 15] (Ac-RPWHAARHPYLPIN-NH2)", "IC50": "> 10000"}
{"smiles": "CC(=O)N[C@H]1CSCc2cccc(c2)CSC[C@@H](C(=O)N[C@@H](CC(N)=O)C(N)=O)NC(=O)[C@@H]2CCCN2C(=O)[C@H](CC(C)C)NC(=O)[C@H](Cc2ccc(O)cc2)NC(=O)[C@@H]2CCCN2C(=O)[C@H](Cc2c[nH]cn2)NC(=O)[C@H](CCCNC(=N)N)NC(=O)[C@H](C)NC(=O)[C@H](C)NC(=O)[C@H](Cc2c[nH]cn2)NC(=O)[C@H](Cc2c[nH]c3ccccc23)NC(=O)[C@@H]2CCCN2C(=O)[C@H](CCCNC(=N)N)NC1=O", "note": "[Peptide 16] (Ac-CRPWHAARHPYLPCN-NH2; linker 1-14 via mXylylene)", "IC50": "> 10000"}
{"smiles": "CC(=O)N[C@H]1CSCc2ccc(cc2)CSC[C@@H](C(=O)N[C@@H](CC(N)=O)C(N)=O)NC(=O)[C@@H]2CCCN2C(=O)[C@H](CC(C)C)NC(=O)[C@H](Cc2ccc(O)cc2)NC(=O)[C@@H]2CCCN2C(=O)[C@H](Cc2c[nH]cn2)NC(=O)[C@H](CCCNC(=N)N)NC(=O)[C@H](C)NC(=O)[C@H](C)NC(=O)[C@H](Cc2c[nH]cn2)NC(=O)[C@H](Cc2c[nH]c3ccccc23)NC(=O)[C@@H]2CCCN2C(=O)[C@H](CCCNC(=N)N)NC1=O", "note": "[Peptide 17] (Ac-CRPWHAARHPYLPCN-NH2; linker 1-14 via pXylylene)", "IC50": "> 10000"}
{"smiles": "CC(=O)N[C@H]1CSCc2cccc(c2)CSC[C@@H](C(=O)N[C@@H](CC(N)=O)C(N)=O)NC(=O)[C@@H]2CCCN2C(=O)[C@H](CC(C)C)NC(=O)[C@H](Cc2ccc(O)cc2)NC(=O)[C@@H]2CCCN2C(=O)[C@H](Cc2c[nH]cn2)NC(=O)[C@H](CCCNC(=N)N)NC(=O)[C@H](C)NC(=O)[C@H](C)NC(=O)[C@H](Cc2c[nH]cn2)NC(=O)[C@H](Cc2c[nH]c3ccccc23)NC(=O)[C@@H]2CCCN2C1=O", "note": "[Peptide 18] (Ac-CPWHAARHPYLPCN-NH2; linker 1-13 via mXylylene)", "IC50": "> 10000"}
{"biological_target": "RbAp48 (Homo sapiens, UniProt Q09028)", "experiment": "Competitive fluorescence polarization (FP) assay using complex of peptide 1 and RbAp48", "format": "binding", "set-up": "Full length RbAp48 was cloned; His tag followed by 3C cleavage site (N, cleaved yes); made in house; host or cells: Sf9 insect cells", "conditions": "Table 1; competitive FP, tracer peptide 1 1 nM, RbAp48 15 nM, 20 mM Tris-HCl, 150 mM NaCl, 0.01% Tween-20, pH 7.5, 30 min room temperature; lower limit set by 15 nM protein; read-out: IC50", "protocol": "as §1, §2, §3, §4, §5, §6", "units": {"IC50": "nM"}}
{"smiles": "CC(=O)N[C@H]1CCC(=O)NCCCC[C@@H](C(=O)N[C@@H](C)C(N)=O)NC(=O)[C@@H]2CCCN2C(=O)[C@H](CCCCN)NC(=O)[C@H](Cc2ccc(O)cc2)NC(=O)[C@@H]2CCCN2C(=O)[C@H](CCCNC(=N)N)NC(=O)[C@H](CCCNC(=N)N)NC(=O)[C@H](C)NC(=O)[C@H](C)NC(=O)[C@H](CCCNC(=N)N)NC(=O)[C@H](CCCCN)NC(=O)[C@H]([C@@H](C)O)NC1=O", "note": "[Peptide 4] (Ac-ETKRAARRPYKPKA-NH2; lactam 1-13)", "IC50": "47.7 ± 12.5"}
{"smiles": "CC(=O)N[C@@H](CCC(=O)O)C(=O)N[C@H](C(=O)N[C@@H](CCCCN)C(=O)N[C@@H](CCCNC(=N)N)C(=O)N[C@H]1CCC(=O)NCCCC[C@@H](C(=O)N[C@@H](C)C(N)=O)NC(=O)[C@@H]2CCCN2C(=O)[C@H](CCCCN)NC(=O)[C@H](Cc2ccc(O)cc2)NC(=O)[C@@H]2CCCN2C(=O)[C@H](CCCNC(=N)N)NC(=O)[C@H](CCCNC(=N)N)NC(=O)[C@H](C)NC1=O)[C@@H](C)O", "note": "[Peptide 5] (Ac-ETKREARRPYKPKA-NH2; lactam 5-13)", "IC50": "126 ± 32.3"}
{"smiles": "CC(=O)N[C@H]1CSCc2ccccc2CSC[C@@H](C(=O)N[C@@H](C)C(N)=O)NC(=O)[C@@H]2CCCN2C(=O)[C@H](CCCCN)NC(=O)[C@H](Cc2ccc(O)cc2)NC(=O)[C@@H]2CCCN2C(=O)[C@H](CCCNC(=N)N)NC(=O)[C@H](CCCNC(=N)N)NC(=O)[C@H](C)NC(=O)[C@H](C)NC(=O)[C@H](CCCNC(=N)N)NC(=O)[C@H](CCCCN)NC(=O)[C@H]([C@@H](C)O)NC1=O", "note": "[Peptide 6] (Ac-CTKRAARRPYKPCA-NH2; linker 1-13 via oXylylene)", "IC50": "77.4 ± 6.5"}
{"smiles": "CC(=O)N[C@H]1CSCc2cccc(c2)CSC[C@@H](C(=O)N[C@@H](C)C(N)=O)NC(=O)[C@@H]2CCCN2C(=O)[C@H](CCCCN)NC(=O)[C@H](Cc2ccc(O)cc2)NC(=O)[C@@H]2CCCN2C(=O)[C@H](CCCNC(=N)N)NC(=O)[C@H](CCCNC(=N)N)NC(=O)[C@H](C)NC(=O)[C@H](C)NC(=O)[C@H](CCCNC(=N)N)NC(=O)[C@H](CCCCN)NC(=O)[C@H]([C@@H](C)O)NC1=O", "note": "[Peptide 7] (Ac-CTKRAARRPYKPCA-NH2; linker 1-13 via mXylylene)", "IC50": "18.7 ± 4.1"}
{"smiles": "CC(=O)N[C@H]1CSCc2cccc(n2)CSC[C@@H](C(=O)N[C@@H](C)C(N)=O)NC(=O)[C@@H]2CCCN2C(=O)[C@H](CCCCN)NC(=O)[C@H](Cc2ccc(O)cc2)NC(=O)[C@@H]2CCCN2C(=O)[C@H](CCCNC(=N)N)NC(=O)[C@H](CCCNC(=N)N)NC(=O)[C@H](C)NC(=O)[C@H](C)NC(=O)[C@H](CCCNC(=N)N)NC(=O)[C@H](CCCCN)NC(=O)[C@H]([C@@H](C)O)NC1=O", "note": "[Peptide 9] (Ac-CTKRAARRPYKPCA-NH2; linker 1-13 via Pyridine(2,6-diCH2))", "IC50": "34.9 ± 14"}
{"smiles": "CC(=O)N[C@@H](CCC(=O)O)C(=O)N[C@H](C(=O)N[C@@H](CCCCN)C(=O)N[C@@H](CCCNC(=N)N)C(=O)N[C@H]1CSCc2ccccc2CSC[C@@H](C(=O)N[C@@H](C)C(N)=O)NC(=O)[C@@H]2CCCN2C(=O)[C@H](CCCCN)NC(=O)[C@H](Cc2ccc(O)cc2)NC(=O)[C@@H]2CCCN2C(=O)[C@H](CCCNC(=N)N)NC(=O)[C@H](CCCNC(=N)N)NC(=O)[C@H](C)NC1=O)[C@@H](C)O", "note": "[Peptide 10] (Ac-ETKRCARRPYKPCA-NH2; linker 5-13 via oXylylene)", "IC50": "322 ± 56.8"}
{"smiles": "CC(=O)N[C@@H](CCC(=O)O)C(=O)N[C@H](C(=O)N[C@@H](CCCCN)C(=O)N[C@@H](CCCNC(=N)N)C(=O)N[C@H]1CSCc2cccc(c2)CSC[C@@H](C(=O)N[C@@H](C)C(N)=O)NC(=O)[C@@H]2CCCN2C(=O)[C@H](CCCCN)NC(=O)[C@H](Cc2ccc(O)cc2)NC(=O)[C@@H]2CCCN2C(=O)[C@H](CCCNC(=N)N)NC(=O)[C@H](CCCNC(=N)N)NC(=O)[C@H](C)NC1=O)[C@@H](C)O", "note": "[Peptide 11] (Ac-ETKRCARRPYKPCA-NH2; linker 5-13 via mXylylene)", "IC50": "388 ± 69.8"}
{"smiles": "CC(=O)N[C@@H](CCC(=O)O)C(=O)N[C@H](C(=O)N[C@@H](CCCCN)C(=O)N[C@@H](CCCNC(=N)N)C(=O)N[C@H]1CSCc2ccc(cc2)CSC[C@@H](C(=O)N[C@@H](C)C(N)=O)NC(=O)[C@@H]2CCCN2C(=O)[C@H](CCCCN)NC(=O)[C@H](Cc2ccc(O)cc2)NC(=O)[C@@H]2CCCN2C(=O)[C@H](CCCNC(=N)N)NC(=O)[C@H](CCCNC(=N)N)NC(=O)[C@H](C)NC1=O)[C@@H](C)O", "note": "[Peptide 12] (Ac-ETKRCARRPYKPCA-NH2; linker 5-13 via pXylylene)", "IC50": "2340 ± 363"}
{"smiles": "CC(=O)N[C@@H](CCC(=O)O)C(=O)N[C@H](C(=O)N[C@@H](CCCCN)C(=O)N[C@@H](CCCNC(=N)N)C(=O)N[C@H]1CSCc2cccc(n2)CSC[C@@H](C(=O)N[C@@H](C)C(N)=O)NC(=O)[C@@H]2CCCN2C(=O)[C@H](CCCCN)NC(=O)[C@H](Cc2ccc(O)cc2)NC(=O)[C@@H]2CCCN2C(=O)[C@H](CCCNC(=N)N)NC(=O)[C@H](CCCNC(=N)N)NC(=O)[C@H](C)NC1=O)[C@@H](C)O", "note": "[Peptide 13] (Ac-ETKRCARRPYKPCA-NH2; linker 5-13 via Pyridine(2,6-diCH2))", "IC50": "147 ± 10.7"}
